pIC50: −log10 of the molar value. Where “and” joins values, the source holds several entries; their conditions need not be identical. Equal entries are not always repeated.
Experiments:
p300 bromodomain = p300 bromodomain (Homo sapiens (Human), UniProt Q09472); assay: Time-resolved fluorescence biochemical assay, p300; format: binding; details: GST fusion of the p300 bromodomain
Excerpt: Data is fitted using the Levenburg Marquardt algorithm. […] Data is fitted using the Levenburg Marquardt algorithm.

[1] = tested on: panel of 10 BRD representing the various branches of the bromodomain tree; assay: AlphaScreen panel of 10 bromodomains; format: binding
[2] = tested on: human kinases and disease-relevant mutant variants; assay: KINOMEscan screen; format: binding
MDA-MB-453 = assay: 10-day CellTiter-Glo antiproliferative assay, MDA-MB-453; format: cell-based; details: Homo sapiens, MDA-MB-453, 240 h; 10-day exposure, CellTiter-Glo; AR High, ER −, Her2 +/−; read-out: IC50 (μM), MDA-MB-453
Protocol: (§1) Breast cell lines were cultured according to the distributor's recommendations. The following day, cells were exposed to compounds up to 10 days. Cell viability was assessed using a CellTiter-Glo® assay (Promega) at the end of the incubation period. The growth inhibitory effect was assessed by the concentration inhibiting growth by 50% using a nonlinear regression equation and a variable slope (Graphpad Prism). The mRNA expression levels for the androgen receptor (HUGO: AR) was determined from the DepMap Portal database (release 19Q2).

CAMA1 = assay: 10-day CellTiter-Glo antiproliferative assay, CAMA1; format: cell-based; details: Homo sapiens, CAMA-1, 240 h, 10-day exposure, AR High, ER +, Her2 −
Protocol: as §1

BT549 = assay: 10-day CellTiter-Glo antiproliferative assay, BT549; format: cell-based; details: Homo sapiens, BT-549, 240 h, 10-day exposure, AR Low, ER −, Her2 −
Protocol: as §1

VCaP = assay: 10-day prostate cancer cell proliferation assay, VCaP; format: cell-based; details: Homo sapiens, VCaP, 240 h; 10 days exposure; WT, AR amplification, androgen-dependent
Protocol: (§2) Prostate cell lines were obtained from ATCC or DSMZ and cultured according to the distributor's recommendations. Prostate cancer cells were plated and incubated overnight. […] Cell viability was assessed using a CellTiter-Glo® assay (Promega) after 10 days drug exposure. The growth inhibitory effect was assessed by the concentration inhibiting growth by 50% using a nonlinear regression equation and a variable slope (Graphpad Prism).

[3] = tested on: AR-negative prostate cancer cell lines DU145 and PC-3; assay: 10-day proliferation assay, AR-negative prostate cancer cell lines; format: cell-based; details: 10-day assay
Protocol: Two AR-negative prostate cancer cell lines DU145 and PC-3 were also evaluated.
as §2

XBP1 = assay: Taqman gene expression in AR-positive breast cancer cells, XBP1; format: cell-based; details: 24 hours, read-out: IC50, XBP1 mRNA
Protocol: AR-positive breast cancer cells were exposed to increasing concentrations of compounds for 24 hours. RNA was extracted and gene expression measured using Taqman® assays for TMPRSS2 and XBP1.

TMPRSS2 [4] = assay: qPCR gene expression in AR-v7+ prostate cancer cells, TMPRSS2; format: cell-based; details: 24 h
Protocol: AR-v7+ prostate cancer cells were exposed to compounds 1, 2, 3, or 4 for 24 h. RNA was extracted and gene expression was measured by qPCR using Taqman® primer-probes. GAPDH was used as a housekeeping gene.

KLK3 (PSA) = assay: qPCR gene expression in VCaP, KLK3 (PSA); format: cell-based; details: Homo sapiens, 24 h
Protocol: (§3) RNA was extracted using Qiacube RNAeasy Mini (Qiagen). For all genes tested, the qPCR reactions were carried out in triplicate with 250 ng RNA per reaction and Taqman® primer-probes. GAPDH was used as a housekeeping gene.

FKBP5 [5] = assay: qPCR gene expression in VCaP, FKBP5; format: cell-based; details: Homo sapiens, 24 h
Protocol: as §3

TMPRSS2 [6] = assay: qPCR gene expression in 22Rv1, TMPRSS2; format: cell-based; details: Homo sapiens, 22Rv1, 24 h
Protocol: as §3

MYC = assay: qPCR gene expression in 22Rv1, MYC; format: cell-based; details: Homo sapiens, 22Rv1, 24 h
Protocol: as §3

FKBP5 [7] = assay: qPCR gene expression in 22Rv1, FKBP5; format: cell-based; details: Homo sapiens, 22Rv1, 24 h
Protocol: as §3

H3K27Ac = H3K27Ac western blot in MDA-MB-453 cells; format: cell-based; details: MDA-MB-453, 24 hrs, western blot
Protocol: H3K27Ac is a specific mark of CBP/p300 activity and thus offers a means to directly assess the impact of CBP/p300 inhibition in cells.
MDA-MB-453 cells were plated overnight and exposed to the compounds for 24 hours. Lysates were prepared from the cells in E-PAGE loading buffer (Invitrogen) and analyzed by western blot with antibodies diluted 1:1000 for anti-H3K27Ac, 1:2000 for anti-total H3 and 1:10,000 for anti-β actin. The blots were scanned and analyzed on a LI-COR Odyssey image analyzer. H3K27Ac levels were normalized to β-Actin.
Finally, a washout experiments was carried out with compound 4 to assess the recovery of the biomarker after removal of the compound. […] Lysates were prepared and analyzed by western blot, as described above.

AR = AR protein level by western blot in prostate cancer cells; format: cell-based
AR-v7 = AR-v7 protein level by western blot in prostate cancer cells; format: cell-based
[8] = tested on: patient-derived xenograft (PDX) model of AR+ prostate cancer sensitive to enzalutamide; assay: Patient-derived xenograft of prostate cancer sensitive to enzalutamide; format: in vivo, NOG mice; details: Compound 1 40 mg/kg/day, enzalutamide 20 mg/kg/day
Protocol: The antitumor activity was determined based by tumor volume during the course of the study.
Male NOG mice (6-8 weeks of age) were implanted with tumor fragments. When tumors reached an average tumor volume of 150-200 mm^3 animals were randomized into different cohort groups and dosing initiated on the same day (Day 0). Animals were weighed twice weekly.
[…] 11.

Sequence of p300 bromodomain (Q09472 1049-1156): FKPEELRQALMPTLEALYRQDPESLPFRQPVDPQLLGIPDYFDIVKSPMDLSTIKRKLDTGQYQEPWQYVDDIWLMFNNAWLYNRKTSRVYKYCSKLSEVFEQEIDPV

With COC(=O)N1c2ccc3c(nc([C@H](O)c4cc(F)ccc4OC)n3[C@@H]3CCC[C@@H](C(=O)O)C3)c2CC[C@@H]1C [Compound 1, (1R,3R)-3-[(7S)-2-[(R)-(5-fluoro-2-methoxyphenyl)(hydroxy)methyl]-6-(methoxycarbonyl)-7-methyl-3H,6H,7H,8H,9H-imidazo[4,5-f]quinolin-3-yl]cyclohexane-1-carboxylic acid] the pIC50 (p300 bromodomain) was > 8.70 and ~9.00, the “activity against panel of bromodomains” value [1] was “inactive against 8” and the pIC50 ([1]; read-out: IC50 in multiple assays of the panel of 10 bromodomains) was less than 5.00. The “binding affinity for kinases” value [2] was “no to low binding affinity”, the IC50 (MDA-MB-453) was less than 0.2 µM and the IC50 (CAMA1) was less than 0.2 µM. The IC50 (BT549) was greater than 1 µM, the pIC50 (VCaP) was 6.00 to 6.30 and the “antiproliferative effect, AR-negative cell lines” value [3] was “inactive”. It also gave a pIC50 (XBP1) greater than 7.00, a pIC50 (TMPRSS2 [4]) greater than 8.00 and an IC50 (KLK3 (PSA)) of 0.01 to 0.05 µM. It also gave an IC50 (FKBP5 [5]) greater than 0.1 µM, an IC50 (TMPRSS2 [6]) of less than 0.01 µM and an IC50 (MYC) greater than 0.1 µM. For the same molecule, the IC50 (FKBP5 [7]) was greater than 0.1 µM, the H3K27Ac level (H3K27Ac) was “concentration dependent reduction” and the “return of AR to baseline level following removal of compound” value (AR; 22Rv1, after a 24 hr exposure) was no more than 24 h. The AR protein level (AR; androgen-independent and androgen-dependent prostate cancer cell lines, western blot) was “dose dependent reduction”, the “AR-v7 reduction maintained after removal of compound” value (AR-v7; 22Rv1, after a 24 hr exposure) was 72 h and the AR-v7 protein level (AR-v7; androgen-independent (AR-v7+) prostate cancer cells, western blot) was “reduced”. The “AR target gene SPDEF expression in tumor” value ([8]; four days) was “reduced”, the H3K27Ac in tumor ([8]; four days) was “reduction of H3K27Ac” and the “TGI at the end of study” value ([8]; start of dosing to day 59) was “comparable”.

From patent publication US20240016795A1, “BROMODOMAIN INHIBITORS FOR ANDROGEN RECEPTOR-DRIVEN CANCERS” (FORMA Therapeutics, Inc., priority 2020, published 2024)
